The results in this text go back to patent publication US20210177879A1, “VITAMIN D RECEPTOR AGONIST” (Guanghzou University of Chinese Medicine, priority 2018, published 2021).

The subject of test [1] is peripheral blood macrophages. Briefly: Typing of peripheral blood macrophages by flow cytometry. Type of test: in vivo, Balb/c mice. The note with it: compared with normal group. On the procedure:
Experimental method: 90 Balb/c mice of 6-8 weeks were purchased from the Experimental Animal Center in Guangzhou University of Chinese Medicine, weighed about 18-22 g, and subjected to adaptive feeding for 10 days. Modeling was divided into three stages. In the first stage, except for the normal group of animals being given saline injection, each of the other animals were intraperitoneally injected with a carcinogen AOM (10 mg/kg), and given free access to 2% DSS water from the next day for 7 days, and then given access to replaced regular drinking water for 14 days. In the second stage, the animals were given free access to 2% DSS water for 10 days, and then given access to replaced regular drinking water for 14 days. In the third stage, the animals were given free access to 2% DSS water for 10 days, and then given access to replaced regular drinking water for 11 days. The normal group was given access to regular drinking water throughout the experiment. The diet, water drinking and body weights of the animals were recorded daily and DAI scores were made, and the animals were killed and harvested at the 10th week. In this experiment, the animals were divided into groups and administrated on the first day of a modeling period of the second stage, and the total number of groups was set to 5 groups. […] Dosing was conducted daily until dissection. […]
In general terms: In flow cytometry, cells or beads pass a laser one at a time.

The next test relates to SRC. Briefly: Detection of acting target of monotropein: SRC (Western blot). Type of test: in vivo, Balb/c mice. The following applies: colon of AOM/DSS mice. As to the method:
(§1) Experimental method: 90 Balb/c mice of 6-8 weeks were purchased from the Experimental Animal Center in Guangzhou University of Chinese Medicine, weighed about 18-22 g, and subjected to adaptive feeding for 10 days. Modeling was divided into three stages. In the first stage, except for the normal group of animals being given saline injection, each of the other animals were intraperitoneally injected with a carcinogen AOM (10 mg/kg), and given free access to 2% DSS water from the next day for 7 days, and then given access to replaced regular drinking water for 14 days. In the second stage, the animals were given free access to 2% DSS water for 10 days, and then given access to replaced regular drinking water for 14 days. In the third stage, the animals were given free access to 2% DSS water for 10 days, and then given access to replaced regular drinking water for 11 days. The normal group was given access to regular drinking water throughout the experiment. The diet, water drinking and body weights of the animals were recorded daily and DAI scores were made, and the animals were killed and harvested at the 10th week. […]
(§2) A potential acting target of monotropein for interfering with the colon cancer was detected.
On the technique in general: In western blotting, separated proteins are transferred to a membrane and probed.

The test system of another test is VDR. Briefly: Detection of acting target of monotropein: VDR expression (Western blot, immunohistochemistry). Type of test: in vivo, Balb/c mice. On the procedure: as §1, with “In the second stage, the animals were given free access to 2% DSS water for 10 days, and then given access to replaced regular drinking water for 14 days. In the third stage, the animals were given free access to 2% DSS water for 10 days, and then given access to replaced regular drinking water for 11 days. The normal group was given access to regular drinking water throughout the experiment.” left out
The animals were anesthetized and harvested, and the liver, spleen, thymus and testis were weighed to calculate the organ coefficient; the colon tissue was taken, measured with a ruler for the length, and measured with a vernier caliper for the thickness, and the number and size of tumors and degree of colonic ulceration and adhesion were recorded; respective tissues were cut into small pieces and fixed, and the remaining tissues were frozen and stored; and the fixed tissues were used for HE staining and immunohistochemistry.
as §2

The next test relates to HT29 transplanted tumor. Briefly: Transplanted tumor of HT29 colon cancer cells in nude mice. Type of test: in vivo. The note with it: 2 mg/kg in combination with 5-fluorouracil at half dose (20 mg/kg), once a day; effect comparable to 5-fluorouracil alone 40 mg/kg. On the procedure:
(§3) The HT29 cells were thawed, and cultured in a changed medium after 24 hours. Medium preparation method: 6% serum, 1% of a bispecific antibody+a 1640 basal medium. After grown to confluent, the cells were digested and subcultured to expand the number of cells. When reached the required amount, the cells were digested by trypsin, centrifuged, and resuspended in PBS to prepare a cell suspension of 1×10^8 cells/ml. A part of the cell suspension was added with the monotropein, desacetyl asperulosidic acid, asperuloside, and asperulosidic acid respectively, and the inhibition rate (%) of tumor cell proliferation by each of these different compounds was examined.
Male adult nude mice, which had the body weights of 20-24 g, were purchased from Guangdong Medical Laboratory Animal Center. After 7 days of adaptive feeding of the animals, except for the blank group, the remaining animals were injected with 0.2 ml of a cell suspension in PBS at ventrodorsal and scapula sites of them, the response conditions of the animals were observed, and the body weights of the animals were determined once a week. After 2 weeks of observation, the animals were grouped into the following groups according to tumor size: a blank group; a model group; a 5-fluorouracil control group (5-Full, 40 mg/kg); monotropein+5-fluorouracil (2 mg/kg monotropein+20 mg/kg 5-fluorouracil), desacetyl asperulosidic acid+5-fluorouracil (2 mg/kg desacetyl asperulosidic acid+20 mg/kg 5-fluorouracil), asperuloside+5-fluorouracil (2 mg/kg asperuloside+20 mg/kg 5-fluorouracil), asperulosidic acid+5-fluorouracil (2 mg/kg asperulosidic acid+20 mg/kg 5-fluorouracil), these groups being labeled as: Mo, As, Aa, Da. Each group included 8 animals; and administration was conducted once a day.
The status, death conditions, and eating and drinking conditions of the animals were observed daily. The body weights of the animals were determined once a week and the tumor size of the animals was determined every 4 days. The tumor volume of the animals was determined by using a vernier caliper. After 1 month of administration, the animals were sacrificed after blood was sampled from the orbit thereof, and the tumor was separated and weighed.

The subject of the next test is IL-6, IL-10, IL-1β. Briefly: Determination of cytokines in intestinal tumor tissues by Elisa. Type of test: in vivo, Balb/c mice. The note with it: vs model group. As to the method:
Experimental method: 90 Balb/c mice of 6-8 weeks were purchased from the Experimental Animal Center in Guangzhou University of Chinese Medicine, weighed about 18-22 g, and subjected to adaptive feeding for 10 days. Modeling was divided into three stages. In the first stage, except for the normal group of animals being given saline injection, each of the other animals were intraperitoneally injected with a carcinogen AOM (10 mg/kg), and given free access to 2% DSS water from the next day for 7 days, and then given access to replaced regular drinking water for 14 days. In the second stage, the animals were given free access to 2% DSS water for 10 days, and then given access to replaced regular drinking water for 14 days. In the third stage, the animals were given free access to 2% DSS water for 10 days, and then given access to replaced regular drinking water for 11 days. The normal group was given access to regular drinking water throughout the experiment. The diet, water drinking and body weights of the animals were recorded daily and DAI scores were made, and the animals were killed and harvested at the 10th week. In this experiment, the animals were divided into groups and administrated on the first day of a modeling period of the second stage, and the total number of groups was set to 5 groups. […]
The intestinal tumor tissues frozen and stored at −80° C. were taken and homogenized, and the homogenate was determined with a BCA kit for the total protein concentration thereof. The homogenate was diluted by 20 times and then determined by Elisa method for cytokines: IL-6, IL-10, and IL-1β. […]

For a further test, the system named is HT29 colon cancer cells. The test is described as follows: In vitro proliferation inhibition of HT29 colon cancer cells. The following applies: concentration of 1 uM; compared with blank control group. Type of test: cell-based. On the procedure: as §3

As for `O=C(O)C1=CO[C@@H](O[C@@H]2O[C@H](CO)[C@@H](O)[C@H](O)[C@H]2O)[C@H]2[C@@H]1C=C[C@]2(O)CO` [monotropein], the “M1/M2 ratio of peripheral blood macrophages” value in test [1] is listed as “up-regulating trend”. In addition, the “effect on SRC, Western blot” value in the test on SRC is given as “no significant effect”. The “expression of VDR, immunohistochemistry” value in the test on VDR (colon cancerous sites of AOM/DSS mice) is “up-regulated the expression of VDR”. Moreover, the “expression of intestinal VDR, Western blot” value with VDR (colon of AOM/DSS mice) was “mainly promoted the expression of intestinal VDR”. Moreover, the “tumor proliferation in HT29 tumor-bearing mice” value with HT29 transplanted tumor was “significantly inhibit tumor proliferation”. Further, the “level of IL-10 in tumor tissues” value is recorded as “no significant differences” in the test with IL-6, IL-10, IL-1β (high-dose monotropein (8 mg/kg) and positive drug 5-ASA (100 mg/kg)); “extremely significantly up-regulated” in the test on IL-6, IL-10, IL-1β (low-dose monotropein (2 mg/kg)). Besides, in the test with HT29 colon cancer cells, the “proliferation of HT29 colorectal cancer cells in vitro” value is recorded as “significantly inhibit the proliferation”.
